Assay results taken from US11098040B2, “Compounds and methods of use” (Ferro Therapeutics, Inc., priority 2018, dated 2021).

Key:
MiaPaCa-2 = test: Cell viability assay (CellTiter Glo), pancreatic carcinoma MiaPaCa-2; assay type: cell-based; conditions: Homo sapiens, MIA PaCa-2; pancreatic carcinoma, 96 hours, CellTiter Glo; read-out: IC50 MiaPaCa-2
How it was run: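 MiaPaCa-2 and AsPC-1 cells were seeded overnight at 37 °C and exposed for 96 h to 9-point, 3-fold dilutions from up to 30 μM (final DMSO ≤0.25%). CellTiter Glo luminescence was read, and inhibition was calculated relative to DMSO-only cells. IC50, relative IC50 or % top inhibition was derived.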

[1] = Pharmacokinetic (PK) studies in Balb/C nude mice via intraperitoneal injection; conditions: male, Balb/c nude, mouse, plasma, ip, 15 mg/kg, Calculated Concentration, IP 15 mg/kg, Balb/C nude mice
143B = test: Cell viability assay (CellTiter Glo), osteosarcoma 143B; assay type: cell-based; conditions: Homo sapiens, 96 h, osteosarcoma, 96 hours, CellTiter Glo, read-out: IC50 143B
Protocol: (§1) Cell viability assay was performed to assess the potency of the compounds in human cancer cell lines KP4 (pancreatic ductal adenocarcinoma), MiaPaCa-2 (pancreatic carcinoma), AsPC-1 (pancreatic adenocarcinoma, ascites), 143B (osteosarcoma), and SJSA-1 (osteosarcoma). Selected compounds were also assayed in a human breast epithelial cell line MCF-10A, a nontumorigenic cell line as a control to assess differential activity. Cells at a density of 500-5,000 cells/well were seeded in 96-well plates and incubated at 37° C. overnight. A series of 9 different concentrations of compound stocks (500×) were created by 3-fold serial dilution in DMSO. These compounds were further diluted in culture media and then added to cells so that the final DMSO concentration was equal to 0.25% or less. After 96 hours of incubation, 50 μL of CellTiter Glo reagent (Promega) was added to each well and luminescence was measured after 10 minutes using EnVision (PerkinElmer). Compounds titrated from top concentration of up to 30 μM. The select compounds were tested initially from 30 μM as the top concentration in duplicates (range of 4.6 nM-30 μM). […] Luminescence from cells treated with DMSO alone was set as Max and % of inhibition was calculated as follows: Inhibition %=(Max-Sample value)/Max*100. Data was analyzed using XL-fit software (ID Business Solutions Ltd.). IC50, relative IC50, or % of top inhibition was calculated.
(§2) The results of the assay in sarcoma cell lines are given in Table 21a for HT-1080 luc2 (fibrosarcoma expressing a luciferase gene), Table 21b for 143B (osteosarcoma), and Table 21c for SJSA-1 (osteosarcoma).

SJSA-1 = test: Cell viability assay (CellTiter Glo), osteosarcoma SJSA-1; assay type: cell-based; conditions: Homo sapiens, 96 hours
Protocol: as §1, §2

MCF-10A = test: Cell viability assay (CellTiter Glo), non-tumorigenic breast epithelial cell line MCF-10A; assay type: cell-based; conditions: Homo sapiens, 96 hours
How it was run: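 MCF-10A cells (500-5,000/well) treated 96 h at 37° C with 9-point 3-fold dilutions from up to 30 μM, ≤0.25% DMSO, in duplicate. Viability by CellTiter Glo luminescence; % inhibition versus DMSO-only wells gave IC50, relative IC50 or % top inhibition. Paclitaxel positive control.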

[2] = Whole blood stability, mouse; assay type: in vitro ADME
Description: (§3) The results of the assay on stability in blood and IC50 values for pancreatic cancer cell line KP4 are given below in Table 24.

KP4 = test: Cell viability assay (CellTiter Glo), pancreatic ductal adenocarcinoma KP4; assay type: cell-based, human; conditions: Homo sapiens, KP-4, 96 h, pancreatic cancer cell line KP4, 96 hours, CellTiter Glo; read-out: IC50 μM KP4
How it was run: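 KP4 cells seeded at 1,000–10,000 per well, treated 96 h with 9-point 3-fold dilutions from 30 μM top (4.6 nM–30 μM, duplicates; ≤0.25% DMSO). Viability by CellTiter Glo luminescence; % inhibition relative to DMSO-only wells, giving IC50, relative IC50 or % top inhibition.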

[3] = Whole blood stability, human; assay type: in vitro ADME
Description: as §3

AsPC-1 = test: Cell viability assay (CellTiter Glo), pancreatic adenocarcinoma AsPC-1; assay type: cell-based; conditions: Homo sapiens, ASPC1; pancreatic adenocarcinoma, ascites, 96 hours, CellTiter Glo; read-out: IC50 AsPC-1
Protocol: as §1
The results of the assay in the pancreatic cell lines are given in Table 15a for PANC1, Table 15b for MiaPaCa-2, and Table 15c for AsPC-1.

IC50 (MiaPaCa-2) [µM] | IC50 (143B) [µM] | IC50 (SJSA-1) [µM] | SMILES | IC50 (MCF-10A) [µM] | also measured
0.091 | 0.135 | 0.327 | CC(C)(C)OC(=O)[C@H]1Cc2c([nH]c3ccccc23)[C@H](c2ccc([N+](=O)[O-])cc2)N1C(=O)CCl [Example 11] |  | 
0.06 | 0.153 | 0.236 | COC(=O)c1ccc([C@H]2c3[nH]c4ccccc4c3C[C@H](C(=O)OC(C)(C)C)N2C(=O)CCl)cc1 [Example 2] |  | 
0.069 | 0.081 | 0.149 | COC(=O)[C@H]1Cc2c([nH]c3ccccc23)[C@H](c2ccc(OC(C)=O)cc2)N1C(=O)CCl [Example 12] | 1.42 | 
 |  |  | [2H]C([2H])([2H])OC(=O)[C@H]1Cc2c([nH]c3ccccc23)[C@H](c2ccc(C(=O)OC(C)(C)C)cc2)N1C(=O)CCl [CA] | 0.47 | Whole Blood Stability % Remaining at 37° C. Mouse ([2]; 0 min): 100.0%; Whole Blood Stability % Remaining at 37° C. Mouse ([2]; 30 min): 80.8%; Whole Blood Stability % Remaining at 37° C. Mouse ([2]; 60 min): 33.2%; IC50 (KP4): < 0.01 µM; Whole Blood Stability % Remaining at 37° C. Human ([3]; 0 min): 100.0%; Whole Blood Stability % Remaining at 37° C. Human ([3]; 30 min): 86.9%; Whole Blood Stability % Remaining at 37° C. Human ([3]; 60 min): 48.9%; IC50 (AsPC-1): 0.023 µM
0.131 | 0.109 | 0.157 | COC(=O)[C@H]1Cc2c([nH]c3ccccc23)[C@H](c2ccc(OC(=O)C(C)(C)C)cc2)N1C(=O)CCl [Example 13] | 3.05 | 
0.063 | 0.101 | 0.215 | CC(C)(C)OC(=O)c1ccc([C@H]2c3[nH]c4ccccc4c3C[C@H](C(=O)OC(C)(C)C)N2C(=O)CCl)cc1 [Example 19] | 0.43 | 
0.119 | 0.273 | 0.687 | CNC(=O)c1ccc([C@H]2c3[nH]c4ccccc4c3C[C@H](C(=O)OC)N2C(=O)CCl)cc1 [Example 7] |  | 
0.039 | 0.074 | 0.202 | CNS(=O)(=O)c1ccc([C@H]2c3[nH]c4ccccc4c3C[C@H](C(=O)OC)N2C(=O)CCl)cc1 [Example 22] | 3.3 | 
0.055 | 0.087 | 0.146 | COC(=O)[C@H]1Cc2c([nH]c3ccccc23)[C@H](c2ccc(C(=O)OC[C@]34C[C@H]5C[C@H](C[C@H](C5)C3)C4)cc2)N1C(=O)CCl [Example 6] | 3.76 | 
0.024 | 0.104 | 0.2 | COC(=O)[C@H]1Cc2c([nH]c3ccccc23)[C@H](c2ccc(C(=O)NCCNC(=O)OC(C)(C)C)cc2)N1C(=O)CCl [Example 16] | 1.95 | 
1.59 | 4.41 | 15.3 | COC(=O)[C@H]1Cc2c([nH]c3ccccc23)[C@H](c2ccc(C(=O)NC(C(=O)O)C(C)(C)C)cc2)N1C(=O)CCl (stereo partly drawn) [Example 10] | > 30 | 
0.077 | 0.143 | 0.25 | COC(=O)[C@H]1Cc2c([nH]c3ccccc23)[C@H](c2ccc(C(=O)N(C)C)cc2)N1C(=O)CCl [Example 8] |  | 
0.037 | 0.075 | 0.149 | CC(C)OC(=O)[C@H]1Cc2c([nH]c3ccccc23)[C@H](c2ccc(C(=O)OC(C)(C)C)cc2)N1C(=O)CCl [Example 20] | 0.82 | 
0.064 | 0.09 | 0.17 | CN(C)C(=O)[C@H]1Cc2c([nH]c3ccccc23)[C@H](c2ccc(C(=O)OC(C)(C)C)cc2)N1C(=O)CCl [Example 21] | 1.58 | 
0.036 | 0.034 | 0.09 | COC(=O)[C@H]1Cc2c([nH]c3ccccc23)[C@H](c2ccc(S(=O)(=O)N(C)C)cc2)N1C(=O)CCl [Example 23] | 2.39 | 
 |  |  | [2H]C([2H])([2H])OC(=O)[C@H]1Cc2c([nH]c3ccccc23)[C@H](c2ccc(C(=O)OC)cc2)N1C(=O)CCl [CC] | 1.68 | Whole Blood Stability % Remaining at 37° C. Mouse ([2]; 0 min): 100.0%; Whole Blood Stability % Remaining at 37° C. Mouse ([2]; 30 min): 0.0%; Whole Blood Stability % Remaining at 37° C. Mouse ([2]; 60 min): 0.0%; IC50 (KP4): < 0.01 µM; Whole Blood Stability % Remaining at 37° C. Human ([3]; 0 min): 100.0%; Whole Blood Stability % Remaining at 37° C. Human ([3]; 30 min): 63.8%; Whole Blood Stability % Remaining at 37° C. Human ([3]; 60 min): 33.5%; IC50 (AsPC-1): 0.118 µM
 |  |  | COC(=O)[C@H]1Cc2c([nH]c3ccccc23)[C@H](c2ccc(C(=O)OCC3CCCC3)cc2)N1C(=O)CCl [Example 86] | 0.33 | IC50 (AsPC-1): 0.021 µM
 |  |  | [2H]C([2H])(Cl)C(=O)N1[C@@H](c2ccc(C(=O)OC(C)(C)C)cc2)c2[nH]c3ccccc3c2C[C@@H]1C(=O)OC [BZ] | 0.59 | Whole Blood Stability % Remaining at 37° C. Mouse ([2]; 0 min): 100.0%; Whole Blood Stability % Remaining at 37° C. Mouse ([2]; 30 min): 65.4%; Whole Blood Stability % Remaining at 37° C. Mouse ([2]; 60 min): 30.7%; IC50 (KP4): < 0.01 µM; Whole Blood Stability % Remaining at 37° C. Human ([3]; 0 min): 100.0%; Whole Blood Stability % Remaining at 37° C. Human ([3]; 30 min): 73.5%; Whole Blood Stability % Remaining at 37° C. Human ([3]; 60 min): 40.8%; IC50 (AsPC-1): 0.03 µM
0.012 | 0.032 | 0.069 | COC(=O)[C@H]1Cc2c([nH]c3ccccc23)[C@H](c2ccc(C(=O)NC(C)(C)C)cc2)N1C(=O)CCl [Example 9] | 2.27 | 

SMILES | IC50 (MiaPaCa-2) [µM] | IC50 (143B) [µM] | IC50 (SJSA-1) [µM] | IC50 (MCF-10A) [µM] | also measured
CN(C)C(=O)[C@H]1Cc2c([nH]c3ccccc23)[C@H](c2ccc([Si](C)(C)C)cc2)N1C(=O)CCl [Example 67] | 0.805 |  |  |  | concentration at 0.5 h ([1]; individual mice): 0.0906 µg/mL; concentration at 1 h ([1]; individual mice): 0.0387 µg/mL; concentration at 4 h ([1]; individual mice): 0.0166 µg/mL; concentration at 0.5 h ([1]; Mean, mean of 3 mice): 0.112 µg/mL; concentration at 1 h ([1]; Mean, mean of 3 mice): 0.0517 µg/mL; concentration at 2 h ([1]; Mean, 2 h, mean of 3 mice): 0.0202 µg/mL; concentration at 4 h ([1]; Mean, mean of 3 mice): 0.0144 µg/mL
